Patent publication US8383609B2, “Phosphorus containing heterocyclic compounds, sugar analogues, and compositions having anti-cancer activity containing the same” (Centre National de la Recherche Scientifique, priority 2007, dated 2013)
Where two headings read alike, the source gives them in different places.

Assays:
[1] = test system: C6 Cells from glioblastomas of rats; experiment: Cytotoxicity on the C6 cell line (quantitative neutral red assay)
Description: c) C6 Cells from glioblastomas of rats. […] These cells were cultured in MEM (Minimum Essential Medium), in the presence of 5% of foetal calf serum. Incubation was conducted at 37° C. in a 5% CO2 humidity atmosphere.
The cells were seeded in 96-well plates with 2000 cells per well in 200 μL of MEM/HANKS (70/30) in the presence of 5% of foetal calf serum. The compounds were added 24 hours after seeding. […] The concentration range used did vary from 50 μM to 24 nM by conducting ½ to ½ serial dilutions.
(§1) The activity evaluation of the test compounds was effected by measuring the cell viability in the culture wells, by means of a so called “neutral red assay” that did consist in contacting the cells with this dye, the accumulation of which in cell acidic compartments does express the health status of the latter. The neutral red test makes it thus possible to know the cytotoxic effect of a compound. The dye was used from a 0.33% stock solution in PBS. 20 μL of such solution were added to each culture well containing 300 μL of culture medium and the plates were incubated at 37° C. for three hours.
(§2) The supernatant of each well was then removed by succion. […] The wells were evacuated again, and the cells were lyzed, thus salting out the dye in the well, this procedure being effected with a solution made of ethanol, water and acetic acid (50/49/1). The colour intensity obtained directly indicated the cell viability. It was quantified by measuring the absorbance at 570 nm. This measure was effected on a 96-well plate reader, of BIO-RAD Microplate reader 550 type, providing an optical density value (OD) for each well of culture.
(§3) Thereafter IC50 values were therefore determined by establishing the OD well X/OD control ratio, thus directly providing the percentage of living cells in the medium.
The quantitative evaluation of the cytotoxicity of the compounds of the invention against modified cells that are said to be “cancerous” was conducted on the C6 cell line. Plates were seeded at a cell density of 2000 cells per well. This density enabled to obtain a 80% confluence after a 4 day-culture for non treated cells.

[2] = test system: astrocyte primary cultures from the cortex of a newborn rat
Description: (§4) b) Astrocyte primary cultures from the cortex of a newborn rat for testing the so called “healthy cells”. This primary culture was conducted based on the brain tissue removed from the cortex of a newborn rat. After homogeneization, trypsinization and centrifugation, cells were distributed in 24-well plates for about 3 weeks. Oligodendrocytes were then removed by stirring the culture plates for 30 minutes and by changing the supernatant with fresh medium.
as §1, §2, §3
(§5) Cytotoxicity evaluation assays against the so called “healthy cells” were conducted on astrocyte primary cultures collected from the cortex of newborn rats, mimetizing the physiology of a so called “healthy cell”, i.e. a non cancerous cell.
(§6) These cells being unmodified, their division time was very long (about 50 hours). It was thus necessary to choose a higher initial seeding concentration (5000 cells per well). The compounds (1) were introduced only after 96 hours so as to allow the cells to adhere to the well walls and to divide once or twice. The concentration range for the test compounds (1) varied from 50 μM to 24 nm as for the C6 cells. Controls were carried out the second day following the introduction of the compounds (1). Two plates were made available for each measurement.

[3] = test system: astrocyte primary cultures from the cortex of a newborn rat; experiment: Cytotoxicity on the non modified astrocytes, so called healthy cells (quantitative assay); conditions: second day after addition, 50 μM to 24 nM
Description: as §4, §1, §2, §3, §5, §6

[4] = test system: spontaneously converted astrocytes collected from the cortex of a newborn rat; experiment: Cytotoxicity on the spontaneously converted astrocytes (qualitative assay, microscopic observation); assay type: cell-based; conditions: microscopic observation each day for four days, 50 μM to 400 nM
Description: a) Spontaneously converted astrocytes collected from the cortex of a newborn rat (see Bochelen D., Langley K., Adamczyk M., Kupfberg, Hor F., Vincendon G., Mersel M., J. Neurosci. Res., 2000, 62, 99-111), that is to say from normal glial cells maintained in culture and that became able to divide to infinity. These cells are not able to induce tumors after implantation in the rat but did avoid the cell cycle regulation. This cell line was maintained in culture in culture flasks in the presence of 5 mL of culture medium MH5 comprising 70% of MEM and 30% of a Hanks solution. This medium was supplemented with 5% of foetal calf serum. The culture medium was changed every three days. Cells were incubated at 37° C. in an air/CO2 atmosphere (95/5). For the experiments, a replanting was effected after removal of the culture medium, cells were treated for 4 to 5 minutes with trypsine (0.1%). The cell suspension was then placed in 5 mL of fresh medium, 50 μL of this solution were collected to perform the cell counting. […]
These assays conducted on compounds 3.28, 3.8, 3.5. […] The effect was evaluated by simple microscopic observation of the culture plates. […] The evaluated compounds did present an activity at a very low concentration. An activity could be observed after 72 h to 96 h (days 3 and 4) for the whole evaluated compounds.

[5] = C6 cell line, high concentration

## CC1(C)O[C@H]2[C@@H]([C@H]3COC(C)(C)O3)O[P@@](=O)(c3ccccc3)[C@@H](OC(=N)C(Cl)(Cl)Cl)[C@H]2O1 [Compound 3.57, 4-(2,2-Dimethyl-[1,3]dioxolan-4-yl)-2,2-dimethyl-2-oxo-2-phenyl-tetrahydro-6λ*5*-[1,3]dioxolo[4,5-d][1,2]oxaphosphinan-3-imidate]
[1]
  mortality of C6 cells when highly concentrated: total mortality
[1]; Rattus norvegicus, C6, 48 h
  IC50: 100 to 5000 nM
[2]
  cytotoxicity on healthy cells (cell viability): did not show any significative effect
[2]; rat
  cell death of healthy cells: ≤ 20%

## Cc1ccc(N[C@H]2[C@H]3OC(C)(C)O[C@H]3[C@@H]([C@H]3COC(C)(C)O3)O[P@@]2(=O)c2ccccc2)cc1 [Compound 3.30b, 4-(2,2-Dimethyl-[1,3]dioxolan-4-yl)-2,2-dimethyl-2-oxo-2-phenyl-tetrahydro-6λ*5*-[1,3]dioxolo[4,5-d][1,2]oxaphosphinan-3-aminotoluyl]
[3]
  cytotoxicity on healthy cells (cell viability): absence of cytotoxicity

## O=[P@@]1(c2ccccc2)O[C@H](COCc2ccccc2)[C@@H](OCc2ccccc2)[C@H](OCc2ccccc2)C1O (some centres unmarked) [Compound 3.48a, 4,5-bis-benzyloxy-6-benzyloxymethyl-2-phenyl-2-oxo-2λ^5-[1,2]oxaphosphinan-3-ol]
[1]; Rattus norvegicus, C6, 48 h
  IC50: 1000 to 2000 nM

## O=[N+]([O-])c1ccc([P@]2(=O)O[C@H](COCc3ccccc3)[C@@H](OCc3ccccc3)[C@H](OCc3ccccc3)C2O)cc1 (single isomer, unassigned) [Compound 3.52, 4,5-bis-benzyloxy-6-benzyloxymethyl-2-(p-nitro)phenyl-2-oxo-2λ^5-[1,2]oxaphosphinan-3-ol]
[1]; Rattus norvegicus, C6, 48 h
  IC50: 100 to 5000 nM
[3]
  cytotoxicity on healthy cells (cell viability): absence of cytotoxicity

## 6-(1,2-dihydroxy-ethyl)-2,2-dimethyl-2-oxo-2-diethoxymethyl-tetrahydro-6λ*5*-[1,3]dioxolo[4,5-d][1,2]oxaphosphinan-3-tosyl [Compound 3.6]
[1]; C6 cell line, neutral red cell viability, measures conducted on day 2 or 3
  IC50: 1500 nM

## Cc1ccc(N[C@H]2[C@H]3OC(C)(C)O[C@H]3[C@@H]([C@H]3COC(C)(C)O3)O[P@@]2(=O)c2ccccc2)cc1 [Compound 3.30a, 4-(2,2-Dimethyl-[1,3]dioxolan-4-yl)-2,2-dimethyl-2-oxo-2-phenyl-tetrahydro-6λ*5*-[1,3]dioxolo[4,5-d][1,2]oxaphosphinan-3-aminotoluyl]
[1]; [5]
  mortality of C6 cells when highly concentrated: total mortality
[1]; Rattus norvegicus, C6, 48 h
  IC50: 500 to 5000 nM
[3]
  cytotoxicity on healthy cells (cell viability): did not show any significative effect

## COc1ccc([P@]2(=O)O[C@H](COCc3ccccc3)[C@@H](OCc3ccccc3)[C@H](OCc3ccccc3)C2O)cc1 (some centres unmarked) [Compound 3.51a, 4,5-bis-benzyloxy-6-benzyloxymethyl-2-(p-methoxy)phenyl-2-oxo-2λ^5-[1,2]oxaphosphinan-3-ol]
[1]; [5]
  mortality of C6 cells when highly concentrated: total mortality
[1]; Rattus norvegicus, C6, 48 h
  IC50: 100 to 5000 nM
[3]
  cytotoxicity on healthy cells (cell viability): did not show any significative effect

## CC1(C)O[C@H]2[C@@H]([C@H]3COC(C)(C)O3)O[P@@](=O)(c3ccccc3)[C@@H](Oc3ccc([N+](=O)[O-])cc3)[C@H]2O1 [Compound 3.9a, 4-(2,2-Dimethyl-[1,3]dioxolan-4-yl)-2,2-dimethyl-2-oxo-2-phenyl-tetrahydro-6λ*5*-[1,3]dioxolo[4,5-d][1,2]oxaphosphinan-3-oxy-p-nitrophenyl]
[1]; Rattus norvegicus, C6, 48 h
  IC50: 400 to 1000 nM

## CC1(C)O[C@H]2[C@@H]([C@H]3COC(C)(C)O3)O[P@@](=O)(c3ccccc3)[C@@H](NCc3ccccc3)[C@H]2O1 [Compound 3.28, 4-(2,2-Dimethyl-[1,3]dioxolan-4-yl)-2,2-dimethyl-2-oxo-2-phenyl-tetrahydro-6λ*5*-[1,3]dioxolo[4,5-d][1,2]oxaphosphinan-3-aminobenzyl]
[4]
  cytotoxic activity on spontaneously converted astrocytes: cytotoxic activity
[1]; Rattus norvegicus, C6, 48 h
  IC50: 800 to 5000 nM
[3]
  cytotoxicity on healthy cells (cell viability): absence of cytotoxicity

## CCOC(OCC)P1(=O)O[C@H]([C@H]2COC(C)(C)O2)[C@@H]2OC(C)(C)O[C@@H]2C1O (some centres unmarked) [Compound 3.19a, 4-(2,2-Dimethyl-[1,3]dioxolan-4-yl)-2,2-dimethyl-2-oxo-2-diethoxymethyl-tetrahydro-6λ*5*-[1,3]dioxolo[4,5-d][1,2]oxaphosphinan-3-ol]
[4]
  cytotoxic activity on spontaneously converted astrocytes: cytotoxic activity
